Assay results from patent publication US20190093096A1, “COMOSAIN AND BROMELAINS AS IMMUNO-THERAPY IN THE TREATING AND/OR PREVENTING VARIOUS TYPES OF CANCER IN A MAMMAL” (priority 2017, published 2019).

What was measured:
lung cancer cells = assay: Inhibition of tumor cell growth of lung cancer by pepsin and trypsin in vitro; format: cell-based; conditions: 72 hours at 37 C, 10% CO2, Coulter counter
Description: The graph represents the two experiments with Pepsin and Trypsin.

[1] = Toxicity of rutin, quercetin, kaempherol and vitexin in mice by oral administration; conditions: for adverse effects on hematopeutic, renal, hepatic systems / toxicity: oral, mouse, rutin 1500, quercetin 1250, kaempherol 1000, vitexin 500 mg/kg; for body weight during observation / pathological abnormality of internal organs, visually or microscopically / survival at day 180: single oral dose; for body weight during observation: 180 days of observation; for pathological abnormality of internal organs, visually or microscopically: sacrifice on day 181; for survival at day 180: rutin 1500, kaempherol 1000, vitexin 500 mg/kg
[2] = Blood analysis on rabbits fed high cholesterol diets; format: in vivo, New Zealand white rabbits; conditions: for decrease of plasma total cholesterol as compared to control group / decrease of plasma triglycerides as compared to control group: 1% cholesterol diet plus 0.15% flavonoid
Experimental: The rabbits were fed for 8 weeks with free access to specific high cholesterol diets and water. Body weight was recorded every 7 days and the records were analyzed. […] (Rutin, quercetin and kaempherol were purchased from Aldrich-Sigma Co. St. Louis, Mo. USA) (Vitexin was purchased from Indofine Co. Sumerville, N.J. USA)
(Step B) After 8 weeks of breeding, the rabbits were anesthetized with injection of ketamine 75 mg/kg in the femoral muscle and sacrificed. Blood samples were collected from the heart of each rabbit to determine the blood analysis consisting of; complete blood count (CBC), Chemistry-7 and 24, (including Liver and renal function tests), lipid profiles, (including Total cholesterol, HDL, LDL, VLDL and triglycerides), coagulation factors consisting of; Prothrombin time (PT), Partial thromboplastin time (PTT), and immuno-globulin-E (an anti-allergenic factor).
The blood samples collected from rabbits of the six dietary groups were allowed to stand for 2 hours, then centrifuged at 4000 rpm for 10 minutes. (Megafuge, Baxter-Heraeus instrument Co. N.J., USA) The supernatants were separated and stored in a deep freeze before analysis. The chemistry analysis was carried out by blood chemistry analyzer (Cobras-Integra-700, Roche Diagnostic Lab. Indiana, USA) to determine the changes in total cholesterol, HDL, LDL, triglycerides, liver function tests (such as SGOT, SGPT, G-GPT) and coagulation factors (PT, PTT) (Bayer-MLA-Electra-900 Automatic coagulation timer). The results were tested by using student t-test and Microsoft excel-7.0 program. The results are depicted in Table III. • 3.

[3] = Analysis for fatty streak deposition in thoracic aorta; format: in vivo, New Zealand white rabbits; conditions: control group: thick layer; 1% cholesterol diet, 8 weeks
[4] = Fatty degeneration in the liver of the rabbits; format: in vivo, New Zealand white rabbits; conditions: 1% cholesterol diet, 8 weeks
Description: According to the report of Fogt F. and Nanji A., (Toxicology and Applied Pharmacology; 136, pp 87-93, 1996) and Keegan A. et al., (Journal of Hepatology; 23, pp 591-600, 1995). Fatty degeneration of liver can be classified into four grades based upon the abnormal fat containing cells around the central vein of liver acinus, for example: grade 1 (0-25%), grade 2 (26-50%), grade 3 (51-75%), grade4 (76-100%). The effects of rutin, quercetin, kaempherol and vitexin on liver tissue on the rabbits from Example 4 Step B were examined.

breast cancer cell line = assay: Growth inhibition of breast cancer cell line by Quercetin and Naringenin in vitro; format: cell-based

Molecule: pepsin: proteinase purchased from Sigma-Aldrich
- tumor cell growth of lung cancer (lung cancer cells): Inhibition of tumor cell growth

Molecule: O=c1c(O)c(-c2ccc(O)c(O)c2)oc2cc(O)cc(O)c12 [Quercetin, 3,5,7,3′,4′ penta-hydroxy flavone]
- adverse effects on hematopeutic, renal, hepatic systems [1]: no adverse effects
- body weight during observation [1]: no body weight loss
- pathological abnormality of internal organs, visually or microscopically [1]: did not develop any pathological abnormality
- survival at day 180 [1]: All mice were alive
- liver function and WBC ([2]; rabbit, in vivo): not affected
- decrease of plasma total cholesterol as compared to control group ([2]; rabbits, 8 weeks): 33%
- decrease of plasma triglycerides as compared to control group ([2]; rabbits, 8 weeks): 47%
- reducing plasma total cholesterol and triglycerides, compared with Simvastatin ([2]; rabbits, 8 weeks): more effective
- macrophage lipid cell complex in the aorta walls (microscopic pictures) [3]: no or a very thin layer of macrophage lipid cell complex
- microscopic features of the liver (fat containing cells) [4]: almost all of the liver cells are normal without containing fat particles
- growth of breast cancer cell line (breast cancer cell line): Growth inhibition

Molecule: C[C@@H]1O[C@@H](OC[C@H]2O[C@@H](Oc3c(-c4ccc(O)c(O)c4)oc4cc(O)cc(O)c4c3=O)[C@H](O)[C@@H](O)[C@@H]2O)[C@H](O)[C@H](O)[C@H]1O [Rutin, Quercetin-3-rutinoside]
- adverse effects on hematopeutic, renal, hepatic systems [1]: no adverse effects
- toxicity [1]: no toxicity
- body weight during observation [1]: no body weight loss
- pathological abnormality of internal organs, visually or microscopically [1]: did not develop any pathological abnormality
- survival at day 180 [1]: All mice were alive
- decrease of plasma total cholesterol as compared to control group ([2]; rabbits, 8 weeks): 32%
- decrease of plasma triglycerides as compared to control group ([2]; rabbits, 8 weeks): 45%
- liver function and WBC ([2]; rabbits, 8 weeks, unlike the Simvastatin group): not affected

Molecule: O=c1cc(-c2ccc(O)cc2)oc2c(C3O[C@H](CO)[C@@H](O)[C@H](O)[C@H]3O)c(O)cc(O)c12 (stereo partly drawn) [Vitexin, 8-D-glucosyl-4′,5,7 trihydroxy-flavone]
- adverse effects on hematopeutic, renal, hepatic systems [1]: no adverse effects
- toxicity [1]: no toxicity
- body weight during observation [1]: no body weight loss
- pathological abnormality of internal organs, visually or microscopically [1]: did not develop any pathological abnormality
- survival at day 180 [1]: All mice were alive
- liver function and WBC ([2]; rabbit, in vivo): not affected
- decrease of plasma total cholesterol as compared to control group ([2]; rabbits, 8 weeks): 30%
- decrease of plasma triglycerides as compared to control group ([2]; rabbits, 8 weeks): 17%
- reducing plasma total cholesterol and triglycerides, compared with Simvastatin ([2]; rabbits, 8 weeks): more effective
- macrophage lipid cell complex in the aorta walls (microscopic pictures) [3]: no or a very thin layer of macrophage lipid cell complex
- microscopic features of the liver (fat containing cells) [4]: almost all of the liver cells are normal without containing fat particles

Molecule: O=c1c(O)c(-c2ccc(O)cc2)oc2cc(O)cc(O)c12 [Kaempherol, 3,5,7,4′ tetra-hydroxy-flavone]
- adverse effects on hematopeutic, renal, hepatic systems [1]: no adverse effects
- toxicity [1]: no toxicity
- body weight during observation [1]: no body weight loss
- pathological abnormality of internal organs, visually or microscopically [1]: did not develop any pathological abnormality
- survival at day 180 [1]: All mice were alive
- liver function and WBC ([2]; rabbit, in vivo): not affected
- decrease of plasma total cholesterol as compared to control group ([2]; rabbits, 8 weeks): 30%
- decrease of plasma triglycerides as compared to control group ([2]; rabbits, 8 weeks): 22%
- reducing plasma total cholesterol and triglycerides, compared with Simvastatin ([2]; rabbits, 8 weeks): more effective
- macrophage lipid cell complex in the aorta walls (microscopic pictures) [3]: no or a very thin layer of macrophage lipid cell complex
- microscopic features of the liver (fat containing cells) [4]: almost all of the liver cells are normal without containing fat particles

Molecule: O=C1C[C@@H](c2ccc(O)cc2)Oc2cc(O)cc(O)c21 [Naringenin]
- growth of breast cancer cell line (breast cancer cell line): Growth inhibition

B1: trypsin: proteinase purchased from Sigma-Aldrich (protein, UniProt P00760 24-246, looked up)
Serine protease 1: IVGGYTCGANTVPYQVSLNSGYHFCGGSLINSQWVVSAAHCYKSGIQVRLGEDNINVVEGNEQFISASKSIVHPSYNSNTLNNDIMLIKLKSAASLNSRVASISLPTSCASAGTQCLISGWGNTKSSGTSYPDVLKCLKAPILSDSSCKSAYPGQITSNMFCAGYLEGGKDSCQGDSGGPVVCSGKLQGIVSWGSGCAQKNKPGVYTKVCNYVSWIKQTIASN
- tumor cell growth of lung cancer (lung cancer cells): Inhibition of tumor cell growth
